{
  "source": "patent US8722052B2",
  "about": "“Vaccinia virus protein A46 peptide and use thereof” (priority 2008, dated 2014)",
  "key": {"[1]": {"tested_on": "IL-12p40", "experiment": "LPS-induced serum IL-12p40 in mice, ELISA", "type": "in vivo", "details": "female BALB/c mice, serum at 4 hours; for serum IL-12p40 level compared with PBS-treated animals: i.v. 1 μg LPS with 3 mg/kg peptide; for inhibition of LPS-induced serum IL-12p40: i.v. single bolus 1 μg LPS with 3 mg/kg peptide", "procedure": "FIG. 30 is a graph showing that A464 inhibits LPS-induced IL-12/23 p40 in vivo. Groups of 5 female BALB/c mice were injected i.v. with a single bolus of one of the following: PBS, 1 μg LPS, 1 μg LPS with 3 mg/kg D-9RN-A464 (SEQ ID NO. 38), 1 μg LPS with 3 mg/kg L-9RN-A464 (SEQ ID NO. 38), or 1 μg LPS with 3 mg/kg L-9RN-A467 (SEQ ID NO. 39). Four hours later, blood was harvested and serum derived. The serum was assayed for IL-12p40 by ELISA. Concentrations are expressed as pg/ml. * p<0.05, *** p<0.001 samples versus LPS. # p<0.01 samples versus PBS.\n(§1) Cytokine and chemokine production from cells or mouse serum was measured by ELISA using Duoset kits from R&D systems, according to the manufacturer's instructions.\nTo do this we used a well characterised model of Gram negative sepsis, where mice are injected with LPS and serum cytokines are later analysed by ELISA. […] Mice were injected i.v. with LPS alone, or with peptide in the presence of LPS. Four hours later serum IL-12p40 concentrations were measured. […] Thus peptides based on the 464 sequence (SEQ ID No. 4) have efficacy in vivo. Thus peptides comprising the 464 sequence (SEQ ID No.4) can inhibit LPS induced proinflammatory IL-12p40 in vivo."}, "[2]": {"biological_target": "T1, TLR2 (Homo sapiens, UniProt O60603)", "T1 construct": "endogenous in cells; host or cells: PMA-differentiated THP-1", "T1 sequence (O60603 21-784)": "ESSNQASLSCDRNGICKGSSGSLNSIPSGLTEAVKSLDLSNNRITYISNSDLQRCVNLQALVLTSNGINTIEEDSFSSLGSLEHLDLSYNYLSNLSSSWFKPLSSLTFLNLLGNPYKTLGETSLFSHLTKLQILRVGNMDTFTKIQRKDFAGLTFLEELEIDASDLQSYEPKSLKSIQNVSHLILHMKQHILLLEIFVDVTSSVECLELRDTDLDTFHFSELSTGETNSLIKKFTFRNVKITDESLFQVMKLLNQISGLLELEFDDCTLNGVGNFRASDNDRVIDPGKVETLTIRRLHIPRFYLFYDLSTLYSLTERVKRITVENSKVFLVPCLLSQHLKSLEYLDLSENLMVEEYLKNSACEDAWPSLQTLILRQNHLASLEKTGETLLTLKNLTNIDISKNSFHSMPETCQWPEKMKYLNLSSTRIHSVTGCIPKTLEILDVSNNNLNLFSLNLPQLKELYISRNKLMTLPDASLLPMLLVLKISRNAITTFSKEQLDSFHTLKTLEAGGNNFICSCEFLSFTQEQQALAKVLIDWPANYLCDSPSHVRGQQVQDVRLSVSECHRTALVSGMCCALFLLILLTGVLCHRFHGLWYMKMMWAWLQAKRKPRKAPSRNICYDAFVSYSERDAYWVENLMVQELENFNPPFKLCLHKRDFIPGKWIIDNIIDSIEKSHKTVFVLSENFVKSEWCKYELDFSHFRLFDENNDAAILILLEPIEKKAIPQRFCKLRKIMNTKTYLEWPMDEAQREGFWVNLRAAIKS", "T1 sequence (Q15399 25-786 partner)": "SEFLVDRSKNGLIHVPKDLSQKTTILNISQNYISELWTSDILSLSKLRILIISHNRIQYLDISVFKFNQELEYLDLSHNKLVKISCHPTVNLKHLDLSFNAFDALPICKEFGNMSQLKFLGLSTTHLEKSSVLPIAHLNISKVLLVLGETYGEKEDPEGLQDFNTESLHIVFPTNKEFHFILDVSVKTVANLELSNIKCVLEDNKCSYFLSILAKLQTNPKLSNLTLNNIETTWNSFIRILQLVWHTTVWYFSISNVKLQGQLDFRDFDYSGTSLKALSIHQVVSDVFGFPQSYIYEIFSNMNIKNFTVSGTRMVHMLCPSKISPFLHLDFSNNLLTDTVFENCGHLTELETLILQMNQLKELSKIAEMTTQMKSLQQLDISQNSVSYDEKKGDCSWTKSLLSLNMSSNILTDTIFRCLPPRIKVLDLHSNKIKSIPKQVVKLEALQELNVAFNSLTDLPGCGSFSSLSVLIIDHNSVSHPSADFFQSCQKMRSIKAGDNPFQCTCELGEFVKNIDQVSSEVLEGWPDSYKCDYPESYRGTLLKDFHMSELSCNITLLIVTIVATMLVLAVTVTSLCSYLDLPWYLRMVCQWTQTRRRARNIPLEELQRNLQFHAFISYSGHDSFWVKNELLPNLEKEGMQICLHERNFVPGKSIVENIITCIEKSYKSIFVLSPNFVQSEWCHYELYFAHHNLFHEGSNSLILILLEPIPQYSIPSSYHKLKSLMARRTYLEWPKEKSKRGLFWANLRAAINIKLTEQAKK", "experiment": "Pam3CysK4-induced TNFα in THP-1 cells, ELISA", "type": "cell-based", "details": "peptide 1, 5 or 10 μM", "procedure": "FIGS. 9A and B are bar charts showing the effect of A464 on Pam3CysK4-induced TNFα in human THP-1 cells. Cells were seeded in 96 well plates (3×10^5 cells/ml) and differentiated with 200 nM PMA for 24 hours before treatment. A464 (SEQ ID NO. 20) was added to the cells at a concentration of 1, 5 or 10 μM 1 hour before stimulating with either 100 ng/ml (A) or 10 ng/ml Pam3CysK4 (B). Supernatants were collected 24 hours after stimulation and assayed for TNFα by ELISA. Cells from (B) were also assayed for viability by the MTT assay (C). No peptides were added to the control wells (black bars). Data is representative of at least three experiments each performed in triplicate and is expressed as mean±s.d;\nas §1\nIn order to determine whether A464 (SEQ ID No. 20) was specific for TLR4, other TLR pathways were next assayed for sensitivity to A464 (SEQ ID No. 20). A scrambled version of A464 (SEQ ID No. 20) peptide was designed to use as a further control peptide, and this had the sequence: […] (ConA464, SEQ ID No. 32). The A464R (SEQ ID No. 20) and ConA464 (SEQ ID No. 32) peptides were assayed for inhibition of TLR2 signalling in THP-1 cells. […]"}},
  "note": "Entries after “also recorded” stand apart in the source; their conditions may differ. Square brackets hold non-standard residues; d marks the D form. Ends that are not written are not given here.",
  "data": [
    {"substance": "9RN-A464 (RRRRRRRRRKYSFKLILAEY) [Peptide 9RN-A464]", "values": [
      {"measurement": "serum IL-12p40 level compared with PBS-treated animals", "setting": "[1]; listed as L-9RN-A464, 3 mg/kg", "value": "not significantly different from mice receiving only PBS; also recorded: not significantly different from the PBS-treated animals"},
      {"measurement": "inhibition of LPS-induced serum IL-12p40", "setting": "[1]", "value": "significantly inhibited LPS-induced IL-12p40"}
    ]},
    {"substance": "D-9RN-A464 ([dR][dR][dR][dR][dR][dR][dR][dR][dR][dK][dY][dS][dF][dK][dL][dI][dL][dA][dE][dY]) [Peptide D-9RN-A464]", "values": [
      {"measurement": "serum IL-12p40 level compared with PBS-treated animals", "setting": "[1]; 3 mg/kg", "value": "not significantly different from mice receiving only PBS; also recorded: not significantly different from the PBS-treated animals"},
      {"measurement": "inhibition of LPS-induced serum IL-12p40", "setting": "[1]", "value": "significantly inhibited LPS-induced IL-12p40"}
    ]},
    {"substance": "KYSFKLILAEYRRRRRRRRR [Peptide A464]", "values": [
      {"measurement": "inhibition of Pam3CysK4-induced hTNFα secretion", "setting": "[2]; 10 ng/ml Pam3CysK4, 24 h", "value": "slightly heightened"},
      {"measurement": "inhibition of Pam3CysK4-induced hTNFα secretion", "setting": "[2]; 100 ng/ml Pam3CysK4, 24 h", "value": "only very minor inhibitory effects"}
    ]}
  ]
}
